Values quoted from earlier work, collected in paper PMC6376154 (International Journal for Parasitology: Drugs and Drug …, 2019).
Where two headings read alike, the source gives them in different places.

Test system: P. falciparum 3D7 asexual blood stage
Conditions: cited from earlier work
[1] = MMV Malaria Box sheet, ref MMV data sheets
[2] = source GNF, ref ChEMBL_NTD, read-out: CHEMBL EC50
[3] = MMV Malaria Box data sheet (supplement mmc2.xls), ref MMV data sheet
[4] = value(s) per source (GSK, GNF, StJude), separated by semicolon, ref ChEMBL-NTD, read-out: CHEMBL EC50
[5] = MMV Malaria Box data sheet, ref MMV data sheets
[6] = MMV Malaria Box data sheet, ref MMV data sheets, read-out: EC50_nM
[7] = source StJude, ref ChEMBL_NTD, read-out: CHEMBL EC50
[8] = MMV Malaria Box sheet, ref MMV data sheets, read-out: EC50_nM
[9] = source GSK, ref ChEMBL_NTD, read-out: CHEMBL EC50
[10] = MMV Malaria Box data sheet (supplement mmc2.xls), ref MMV data sheet, read-out: EC50_nM
[11] = ChEMBL-NTD value per source (GNF, GSK, StJude), several values in a cell follow the order of the sources, read-out: CHEMBL EC50

Cc1ccc(S(=O)(=O)c2c(COC(=O)c3cccc(C)c3)c(-c3ccccc3)nn2C)cc1 [MMV665936]
percent_inh @ 5 uM [1]: 95% | EC50 [2]: 8400 nM

O=C(Nc1ccsc1C(=O)NC1CCCCC1)c1ccc(F)cc1 [MMV665939]
percent_inh @ 5 uM [3]: 86% | EC50 [4]: 1210 nM

CCOc1ccc(C=Cc2nc(=O)c3ccccc3o2)cc1 [MMV665940]
percent_inh @ 5 uM [5]: 95% | EC50 [6]: 560 nM | EC50 [7]: 188 nM

CN(C)c1ccc(C(O)(c2ccc(N(C)C)cc2)c2ccc(N(C)C)cc2)cc1 [MMV665941]
percent_inh @ 5 uM [5]: 96% | EC50 [6]: 255 nM | EC50 [7]: 620 nM

Nc1ccc(-c2nc3cc(Cc4ccc5[nH]c(-c6ccc(N)cc6)nc5c4)ccc3[nH]2)cc1 [MMV665943]
percent_inh @ 5 uM [1]: 100% | EC50 [8]: 1420 nM | EC50 [2]: 243 nM | EC50 [9]: 512 nM | EC50 [7]: 1080 nM

COc1ccc(CN2CCN(Cc3ccccc3)CC2)c(O)c1 [MMV665944]
percent_inh @ 5 uM [1]: 96% | EC50 [8]: 1080 nM | EC50 [7]: 1090 nM

CC(C)=CCN1CCC(C(=O)Nc2ccc(-c3nc4ccccc4[nH]3)cc2)CC1 [MMV665946]
percent_inh @ 5 uM [3]: 96% | EC50 [10]: 1160 nM

O=C(Nc1ccccc1O)c1ccc(-c2ccc(Cl)cc2Cl)o1 [MMV665948]
percent_inh @ 5 uM [3]: 97% | EC50 [4]: 2460 nM

Oc1ccc(C(=C(Cl)Cl)c2ccc(O)cc2)cc1 [MMV665949]
percent_inh @ 5 uM [1]: 95% | EC50 [7]: 2470 nM

O=C(Nc1ccc(F)c(Cl)c1)Nc1ccc(Cl)c(Cl)c1 [MMV665953]
percent_inh @ 5 uM [3]: 95% | EC50 [10]: 2060 nM | EC50 [4]: 5410 nM

O=C(NCC1Cc2cccc(-c3ccncc3)c2O1)c1csc2c1CCCC2 (stereo not drawn) [MMV665954]
percent_inh @ 5 uM [3]: 87% | EC50 [10]: 1720 nM | EC50 [4]: 8740 nM

CCN(CC)CCCNc1nc(-c2ccc(Cl)cc2)nc2ccccc12 [MMV665961]
percent_inh @ 5 uM [3]: 92% | EC50 [4]: 15000 nM

COc1cccc(C(=O)NC(c2ccc(C)cc2)c2cc(Cl)c3cccnc3c2O)c1 (stereo not drawn) [MMV665969]
percent_inh @ 5 uM [1]: 97% | EC50 [8]: 393 nM | EC50 [7]: 15000 nM

CCOC(=O)C1=C(C)N=c2sc(=Cc3cc(Cl)ccc3O)c(=O)n2C1c1ccc(OC)cc1 (stereo not drawn) [MMV665971]
percent_inh @ 5 uM [1]: 97% | EC50 [8]: 489 nM | EC50 [9]: 746 nM | EC50 [7]: 15000 nM

O=C(Cc1ccccc1)NC(c1ccc(Cl)cc1)c1c(O)ccc2ccccc12 (stereo not drawn) [MMV665972]
EC50 [11]: 15000 nM

CCOC(=O)c1cn(CC)c2cc(N(C)CCc3ccc(OC)c(OC)c3)c(F)cc2c1=O [MMV665977]
percent_inh @ 5 uM [5]: 99% | EC50 [6]: 205 nM | EC50 [2]: 103 nM | EC50 [9]: 425 nM

FC(F)(F)c1cccc(CNC2CCN(CCc3ccccc3)CC2)c1 [MMV665979]
percent_inh @ 5 uM [5]: 96% | EC50 [6]: 685 nM | EC50 [2]: 174 nM

OC1CCCCC1C1(NC(=S)Nc2ccccc2)CCCCC1 (stereo not drawn) [MMV665980]
percent_inh @ 5 uM [1]: 59% | EC50 [2]: 211 nM

CCCCCCc1cc(O)c2c3c(c(=O)oc2c1)CCC(C)C3 (stereo not drawn) [MMV665987]
percent_inh @ 5 uM [1]: 96% | EC50 [8]: 534 nM | EC50 [2]: 364 nM

Cc1nc2ccccc2c(O)c1CC=C(Cl)Cl [MMV665994]
percent_inh @ 5 uM [1]: 89% | EC50 [8]: 836 nM | EC50 [2]: 498 nM

CN1c2ccccc2N(C)C1c1ccc2c(c1)OCO2 [MMV666009]
percent_inh @ 5 uM [3]: 60% | EC50 [10]: 994 nM | EC50 [4]: 1120 nM

Cc1ccc(OCCCCCCNCCO)c(C)c1 [MMV666020]
percent_inh @ 5 uM [1]: 49% | EC50 [2]: 1970 nM

Cc1ccc(-c2cc3c(nn2)-c2ccccc2C3=O)cc1 [MMV666021]
percent_inh @ 5 uM [5]: 99% | EC50 [6]: 94.4 nM | EC50 [2]: 2000 nM

COc1ccc(C(=O)NC(c2ccccc2Cl)c2cc(Cl)c3cccnc3c2O)cc1 (stereo not drawn) [MMV666022]
EC50 [11]: 2370 nM

c1ccc(Cn2c(N=Nc3c(Nc4ccccc4)ccc4ccccc34)nc3ccccc32)cc1 [MMV666023]
percent_inh @ 5 uM [5]: 96% | EC50 [6]: 36.8 nM | EC50 [2]: 2730 nM

OC(Cn1nnc2ccccc21)Cn1c2ccc(Br)cc2c2cc(Br)ccc21 (stereo not drawn) [MMV666025]
EC50 [11]: 3370 nM

COc1ccc(-c2cc3c(nn2)-c2ccccc2C3=O)cc1 [MMV666026]
EC50 [11]: 3840 nM

COc1ccc(C(=O)NC(c2ccc(Cl)cc2Cl)c2cc(Cl)c3cccnc3c2O)cc1 (stereo not drawn) [MMV666054]
percent_inh @ 5 uM [1]: 96% | EC50 [8]: 513 nM | EC50 [9]: 499 nM

O=C(Nc1ccc(Cl)cc1C(=O)Nc1ccncc1)c1ccc(Cl)cc1Cl [MMV666057]
percent_inh @ 5 uM [5]: 94% | EC50 [9]: 611 nM

COc1ccc(CN2CCCC(C(=O)c3ccc(C(F)(F)F)cc3)C2)c(O)c1 (stereo not drawn) [MMV666060]
EC50 [11]: 849 nM

COc1cccc(O)c1CN1CCC2(CCCN(Cc3ccc(F)cc3)C2)C1 (stereo not drawn) [MMV666061]
percent_inh @ 5 uM [3]: 95% | EC50 [10]: 530 nM | EC50 [4]: 865 nM

Cc1ccc(N2C(=O)C3C(C2=O)C2(c4ccccc4)C(=O)C3(c3ccccc3)C(c3ccccc3)=C2c2ccccc2)cc1 (stereo not drawn) [MMV666062]
percent_inh @ 5 uM [5]: 98% | EC50 [6]: 282 nM | EC50 [9]: 869 nM

COc1ccc(CNC2CCN(c3ccc(NC(=O)c4cccc(Cl)c4)cc3)CC2)cc1OC [MMV666067]
percent_inh @ 5 uM [3]: 97% | EC50 [10]: 663 nM | EC50 [4]: 1020 nM

COc1ccc(CCN2CCC(CN(C)Cc3cnn(-c4ccccc4)c3)CC2)cc1 [MMV666069]
percent_inh @ 5 uM [3]: 96% | EC50 [10]: 1430 nM | EC50 [4]: 1160 nM

O=C(NC1CCCC1)c1ccc(N2CCC(NCc3cccc(C(F)(F)F)c3)CC2)cc1 [MMV666070]
percent_inh @ 5 uM [3]: 93% | EC50 [4]: 1330 nM

Cc1ccc(CN2CCC(C(=O)Nc3ccc(-c4cc5ccccc5[nH]4)cc3)CC2)o1 [MMV666071]
percent_inh @ 5 uM [3]: 77% | EC50 [4]: 1420 nM

COCCNC(=O)c1ccc(OC2CCN(Cc3ccc(F)c(F)c3)CC2)c(Cl)c1 [MMV666072]
percent_inh @ 5 uM [5]: 91% | EC50 [9]: 1490 nM

COc1ccc(C2N(C)c3ccccc3N2C)cc1 [MMV666075]
percent_inh @ 5 uM [3]: 62% | EC50 [4]: 15000 nM

Cc1ccc2cc3c(N)c4c(C)ccc(C)c4nc3nc2c1 [MMV666079]
percent_inh @ 5 uM [1]: 98% | EC50 [8]: 1310 nM | EC50 [2]: 431 nM

O=C(NC(c1ccccc1)c1ccc2cccnc2c1O)c1ccccc1 (stereo not drawn) [MMV666080]
percent_inh @ 5 uM [3]: 95% | EC50 [10]: 1170 nM

CCCc1c(C)nc2ccccc2c1O [MMV666081]
percent_inh @ 5 uM [3]: 88% | EC50 [4]: 630 nM

CCCC(c1nnnn1C1CCCCC1)N1CCN(C(=O)c2ccco2)CC1 (stereo not drawn) [MMV666093]
percent_inh @ 5 uM [3]: 82% | EC50 [4]: 1330 nM

CCCc1c(C)nc2ccc(Br)cc2c1O [MMV666095]
percent_inh @ 5 uM [1]: 64% | EC50 [8]: 1190 nM | EC50 [2]: 1510 nM

COc1ccc(C2=C(c3ccc(OC)cc3)C3(c4ccccc4)C(=O)C2(c2ccccc2)C2C(=O)N(c4ccc(C)cc4)C(=O)C23)cc1 (stereo not drawn) [MMV666101]
percent_inh @ 5 uM [5]: 98% | EC50 [6]: 148 nM | EC50 [2]: 12500 nM

CN(C)c1ccc(-c2nc3cc(N)ccc3[nH]2)cc1 [MMV666102]
percent_inh @ 5 uM [3]: 64% | EC50 [4]: 239 nM

CCn1c(SCC(=O)Nc2cc(C(F)(F)F)ccc2Cl)nc2ccccc2c1=O [MMV666103]
percent_inh @ 5 uM [5]: 91% | EC50 [6]: 1000 nM | EC50 [9]: 397 nM

COCCN(C(=O)Cc1cccs1)C(C(=O)NCc1ccc(OC)cc1)c1ccc(C(C)C)cc1 (stereo not drawn) [MMV666105]
percent_inh @ 5 uM [5]: 92% | EC50 [6]: 1190 nM | EC50 [9]: 845 nM

O=C(NC1CCCCC1)C(c1cccs1)N(CCc1ccccc1)C(=O)c1ccco1 (stereo not drawn) [MMV666106]
EC50 [11]: 1040 nM

O=C(CCc1ccco1)NC1CCN(CC2(c3ccc(Cl)cc3)CCC2)CC1 [MMV666108]
percent_inh @ 5 uM [3]: 96% | EC50 [10]: 1140 nM | EC50 [4]: 1450 nM

CCOC(=O)C1(Cc2ccccc2)CCN(Cc2cccc(OC)c2O)CC1 [MMV666109]
percent_inh @ 5 uM [1]: 95% | EC50 [7]: 2290 nM

C=C(C)CCC(C)N1CCC(N2CCC(C(=O)NCCc3ccccc3)CC2)CC1 (stereo not drawn) [MMV666110]
percent_inh @ 5 uM [3]: 96% | EC50 [10]: 1750 nM | EC50 [4]: 4260 nM

Oc1ccccc1CN1CCC2(CCCN(Cc3ccccc3F)C2)C1 (stereo not drawn) [MMV666116]
percent_inh @ 5 uM [3]: 98% | EC50 [10]: 548 nM | EC50 [4]: 679 nM

CC(C)(C)c1ccc(C(=O)Nc2c3c(nn2-c2cccc(Cl)c2)CSC3)cc1 [MMV666123]
percent_inh @ 5 uM [1]: 93% | EC50 [7]: 15000 nM

CC1=C(CC(=O)c2cccc([N+](=O)[O-])c2)C(=O)c2ccccc2C1=O [MMV666125]
percent_inh @ 5 uM [1]: 95% | EC50 [8]: 381 nM | EC50 [2]: 2840 nM

CSC1=NC(=Nc2c(C)cccc2C)C2(CCC(C(C)(C)C)CC2)N1c1ccc(Cl)cc1 (stereo not drawn) [MMV666596]
percent_inh @ 5 uM [5]: 96% | EC50 [6]: 135 nM | EC50 [2]: 1480 nM

CCCCCCc1cc2cc(-c3nc4ccccc4[nH]3)c(=Nc3ccccc3C)oc2cc1O [MMV666597]
EC50 [11]: 2120 nM

O=c1nc(C=Cc2ccc(Br)cc2)oc2ccccc12 [MMV666599]
percent_inh @ 5 uM [1]: 94% | EC50 [9]: 1050 nM

CCOC(=O)c1c(C)n(-c2ccc(Cl)cc2)c2ccc(OC(=O)C=Cc3ccccc3)cc12 [MMV666600]
percent_inh @ 5 uM [5]: 97% | EC50 [6]: 216 nM | EC50 [9]: 698 nM

CCOC(=O)C1=C(c2ccccc2)N=c2sc(=Cc3cc(C)n(-c4ccc(F)cc4)c3C)c(=O)n2C1c1cccc(OC)c1OC (stereo not drawn) [MMV666601]
percent_inh @ 5 uM [5]: 94% | EC50 [6]: 154 nM | EC50 [2]: 2320 nM

CCOC(=O)C1=C(C)N=c2sc(=Cc3ccccc3O)c(=O)n2C1c1ccc(OC)c2ccccc12 (stereo not drawn) [MMV666604]
percent_inh @ 5 uM [1]: 97% | EC50 [8]: 1510 nM | EC50 [9]: 1260 nM
